In assay [1] the test system is Plasmodium falciparum. Briefly: (§1) Inhibition of Plasmodium falciparum recombinant carbonic anhydrase.
In assay [2] the test system is Plasmodium falciparum. Briefly: Ex vivo inhibition of Plasmodium falciparum growth in cultured cells after 48hrs as [3H]hypoxanthine uptake. Type of assay: functional, organism-based.
Assay [3] can be described thus: as §1.
The subject of another assay is BC. The experiment in a line: Cytotoxicity against human BC cells. Type of assay: functional, cell-based.
In a further assay the test system is KB. The experiment in a line: Cytotoxicity against human KB cells. Type of assay: functional, cell-based.
For assay [4], the system named is Plasmodium berghei. Briefly: Antimalarial activity against Plasmodium berghei infected mice (Mus musculus) at 2.5 to 25 mg/kg. Type of assay: functional, organism-based.
Assay [5] has as its system Plasmodium berghei. Briefly: Antimalarial activity against Plasmodium berghei infected mice (Mus musculus). Type of assay: functional. Conditions: read-out: ID50 (the source's name).

38 compounds from ChEMBL document CHEMBL1142445, “Carbonic anhydrase inhibitors: inhibition of Plasmodium falciparum carbonic anhydrase with aromatic/heterocyclic sulfonamides-in vitro and in vivo studies” (Bioorg Med Chem Lett, 2008) can be followed below.

Activity calls are given as the source filed them. The calls are words filed in the database; no cut-off is given here.

Consider `C[C@@H]1CC[C@H]2[C@@H](C)C(=O)O[C@@H]3O[C@@]4(C)CC[C@@H]1[C@]32OO4`, for which, in the assay on Plasmodium falciparum [1], the result was inactive.
Usually IC50 stands for the concentration that gives 50% inhibition. Broadly, the Ki is a measure of affinity in units of concentration, obtained from inhibition or displacement. As to `CCN(CC)C(=S)SNc1ccc(S(N)(=O)=O)cc1`, the half-inhibitory concentration (IC50) with Plasmodium falciparum [2] is over 50 µM. Further, the inhibitory constant (Ki) in assay [3] was found to be 3 µM.
The compound `CC(=O)Nc1nnc(S(N)(=O)=O)s1` [ACETAZOLAMIDE] yielded an IC50 with Plasmodium falciparum [2] of 20 µM. Also, the result with BC, in the assay on KB and with Plasmodium berghei [4] was inactive. In addition, in assay [3], the inhibitory constant (Ki) came out at 0.315 µM.
For the compound `NS(=O)(=O)c1ccc(NC(=O)Nc2ccc(Cl)c(Cl)c2)cc1`, the IC50 in the assay on Plasmodium falciparum [2] is over 50 µM. Besides, in assay [3], the Ki amounted to 5.58 µM.
Regarding `CC(=O)NS(=O)(=O)c1ccc(NC(=S)Nc2ccc(S(N)(=O)=O)cc2)cc1`, in the assay with Plasmodium falciparum [2], the 50% inhibitory concentration (IC50) is over 50 µM. For the same compound, the Ki in assay [3] is 4.62 µM.
The matching figures for `NS(=O)(=O)c1nnc(NC(=O)c2c(F)c(F)c(F)c(F)c2F)s1`: over 50 µM and 3.44 µM.
Consider `C=C[C@H]1CN2CC[C@H]1C[C@H]2[C@H](O)c1ccnc2ccc(OC)cc12`, for which the result with Plasmodium falciparum [1] was inactive.
Take `COc1ccc2c(CC(=O)Nc3cc(C(F)(F)F)c(S(N)(=O)=O)cc3S(N)(=O)=O)cc(=O)oc2c1`: in the assay with Plasmodium falciparum [2], the IC50 was over 50 µM. The Ki in assay [3] amounted to 2.52 µM.
In the same order, the values of `NS(=O)(=O)c1nnc(NS(=O)(=O)C(F)(F)C(F)(F)C(F)(F)C(F)(F)C(F)(F)C(F)(F)C(F)(F)C(F)(F)F)s1` are over 50 µM and 0.192 µM.
The compound `NS(=O)(=O)c1cccc(NC(=O)c2cc3ccccc3oc2=O)c1` displayed an IC50 with Plasmodium falciparum [2] of over 50 µM. The Ki in assay [3] is over 25 µM.
The matching figures for `NS(=O)(=O)c1nnc(NC(=S)NC(=O)Nc2ccccc2)s1`: over 50 µM and 6.73 µM.
In the same order, the values of `CN(C)c1ccc(/C=N/CCCc2ccc(S(N)(=O)=O)cc2)cc1` are over 50 µM and over 25 µM.
In the assay with Plasmodium falciparum [2], `NS(=O)(=O)c1ccccc1NC(=O)c1cc2ccccc2oc1=O` returned an IC50 of over 50 µM. For the same compound, in assay [3], the Ki is 18.5 µM.
The matching figures for `NS(=O)(=O)c1ccccc1NC(=O)N(c1ccccc1)c1ccccc1`: over 50 µM and 1.99 µM.
In the assay with Plasmodium falciparum [2], `Cn1ccnc1/C=N/CCCc1ccc(S(N)(=O)=O)cc1` registered an IC50 of over 50 µM. For the same compound, the inhibition constant Ki in assay [3] is over 25 µM.
For `CCN(CC)C(=S)SNCc1ccc(S(N)(=O)=O)cc1`, the IC50 in the assay on Plasmodium falciparum [2] was over 50 µM. In assay [3], the Ki came to 8.39 µM.
In the same order, the values of `CN(C)c1ccc(/C=N/Cc2ccc(S(N)(=O)=O)cc2)cc1` are over 50 µM and over 25 µM.
Take `NS(=O)(=O)c1ccc(NC(=O)c2ccc(S(N)(=O)=O)cc2)cc1`: in the assay with Plasmodium falciparum [2], the half-maximal inhibitory concentration (IC50) is over 50 µM. In addition, the inhibition constant (Ki) in assay [3] is 3.05 µM.
`NS(=O)(=O)c1ccc(CCNC(=O)c2cc3ccccc3oc2=O)cc1` showed an IC50 in the assay on Plasmodium falciparum [2] of over 50 µM. Besides, the Ki in assay [3] was 13.2 µM.
Compound `COc1ccc2c(CC(=O)Nc3ccc(S(N)(=O)=O)cc3)cc(=O)oc2c1` registered an IC50 with Plasmodium falciparum [2] of over 50 µM. In addition, the Ki in assay [3] was 0.97 µM.
In the same order, the values of `NC(=S)Nc1ccc(S(N)(=O)=O)cc1` are over 50 µM and 2.1 µM.
The matching figures for `NS(=O)(=O)c1cc(S(N)(=O)=O)c(C(F)(F)F)cc1NC(=O)c1cc2ccccc2oc1=O`: over 50 µM and 9.03 µM.
In the assay on Plasmodium falciparum [2], `COc1ccc2c(CC(=O)Nc3ccccc3S(N)(=O)=O)cc(=O)oc2c1` displayed an IC50 of over 50 µM. For the same compound, the Ki in assay [3] worked out at 1.44 µM.
On to `Cn1nc(S(N)(=O)=O)s/c1=N/C(=O)c1c(F)c(F)c(F)c(F)c1F`, for which, in the assay on Plasmodium falciparum [2], the IC50 was over 50 µM. In assay [3], the Ki turned out to be 6.87 µM.
In the same order, the values of `NS(=O)(=O)c1ccc(/N=C/c2ccc3ccccc3c2Br)cc1` are over 50 µM and 4.16 µM.
In turn, `NS(=O)(=O)c1ccc(CNC(=O)c2cc3ccccc3oc2=O)cc1` yielded an IC50 in the assay on Plasmodium falciparum [2] of over 50 µM. Also, the Ki in assay [3] came to 5.05 µM.
The compound `NS(=O)(=O)c1ccccc1NS(=O)(=O)c1c(F)c(F)c(F)c(F)c1F` showed an IC50 in the assay with Plasmodium falciparum [2] of over 50 µM. Besides, the Ki in assay [3] was determined as 3.06 µM.
The matching figures for `NS(=O)(=O)c1nnc(NS(=O)(=O)c2c(F)c(F)c(F)c(F)c2F)s1`: over 50 µM and 2.58 µM.
The matching figures for `COc1ccc2c(CC(=O)Nc3cccc(S(N)(=O)=O)c3)cc(=O)oc2c1`: over 50 µM and 4.58 µM.
In the same order, the values of `NS(=O)(=O)c1ccc(NC(=O)c2cc3ccccc3oc2=O)cc1` are over 50 µM and 5.82 µM.
Take `NS(=O)(=O)c1ccc(NS(=O)(=O)c2ccc(NC(=O)N(c3ccccc3)c3ccccc3)cc2)cc1`: in the assay with Plasmodium falciparum [2], the half-maximal inhibitory concentration (IC50) was over 50 µM. In addition, in assay [3], the Ki was found to be 16.5 µM.
As for `NS(=O)(=O)c1ccc(NNC(=O)c2cc3ccccc3oc2=O)cc1`, the half-inhibitory concentration (IC50) in the assay on Plasmodium falciparum [2] was over 50 µM. Also, the Ki in assay [3] turned out to be 4.06 µM.
In the assay with Plasmodium falciparum [2], `NS(=O)(=O)c1ccc(C/N=C/c2ccccc2Cl)cc1` yielded an IC50 of 3.89 µM. Further, the result in the assay on BC, in the assay on KB and in the assay with Plasmodium berghei [4] was inactive. For the same compound, the Ki in assay [3] came out at 0.25 µM.
For the compound `NS(=O)(=O)c1ccc(CNC(=O)N(c2ccccc2)c2ccccc2)cc1`, in the assay with Plasmodium falciparum [2], the IC50 is over 50 µM. Also, the Ki in assay [3] is 16 µM.
Consider `CCN(CC)CCCC(C)Nc1ccnc2cc(Cl)ccc12` (stereo not drawn) [CHLOROQUINE], for which the result in the assay with Plasmodium falciparum [1] was inactive. Also, the ED50 in the assay with Plasmodium berghei [5] came to 5 mg/kg.
In the case of `COc1ccc2c(CC(=O)NNc3ccc(S(N)(=O)=O)cc3)cc(=O)oc2c1`, the IC50 in the assay on Plasmodium falciparum [2] is over 50 µM. Further, in assay [3], the Ki is 3.51 µM.
In the case of `NS(=O)(=O)c1ccc(CNC(=S)NC(=O)c2ccc(Cl)c(Cl)c2)cc1`, in the assay on Plasmodium falciparum [2], the IC50 stood at 1 µM. Moreover, the outcome with BC and with KB was inactive. Also, the Ki in assay [3] stood at 0.18 µM. Moreover, in the assay with Plasmodium berghei [5], the ED50 was 10 mg/kg.
Regarding `CN(C)c1ccc(/C=N/c2ccc(S(N)(=O)=O)cc2)cc1`, the IC50 in the assay with Plasmodium falciparum [2] was over 50 µM. Also, the Ki in assay [3] was over 25 µM.
